In EPA's ToxValDB 9.5 (doi:10.2903/j.efsa.2010.1682):
Converted amounts (≈) assume the structure as drawn.

Columns and labels:
[1] = system: Allium cepa; details: not reported; seedling emergence
[2] = system: Anas platyrhynchos
[3] = system: Apis mellifera; details: acute, duration: 72 hours, mortality
[4] = system: Bibionidae; details: chronic/long-term
[5] = system: Canidae; details: oral, Dog Other, organ weight
[6] = system: Colinus virginianus
[7] = system: Cucumis sativus; details: not reported; seedling emergence
[8] = system: Daphnia magna; details: chronic/long-term; duration: 21 days; reproduction
[9] = system: Oncorhynchus mykiss
[10] = system: Rattus norvegicus
[11] = system: Tagia sp.
[12] = system: Typhlodromus pyri; details: not reported

In the case of `CCCCC(C#N)(Cn1cncn1)c1ccc(Cl)cc1` (centres undefined) [Myclobutanil], the LEL [1] is reported as 300 g/ha, the NOEC ([2]; reproductive) is reported as 31.6 mg/kg-day and the LC50 ([2]; short-term, oral, feed, mortality) is reported as over 1540 mg/kg-day. It also gave an LD50 ([3]; dermal) of over 39.6 µg/piece, an LD50 ([3]; oral, unspecified) of over 33.9 µg/piece and an NOEC [4] of 6.07 mg/kg. For the same molecule, the NOEC ([4]; duration: 30 days) was 4.98 mg/L, the NOAEL ([5]; chronic, duration: 1 years) was 3.09 mg/kg-day and the NOAEL ([5]; subchronic, duration: 90 days) was 3.09 mg/kg-day. For the same molecule, the LC50 ([6]; acute, oral, diet, mortality) was over 567 mg/kg-day, the LD50 ([6]; acute, oral, mortality) was 510 mg/kg-day and the NOEC ([6]; reproduction developmental) was 24.2 mg/kg-day. The LEL [7] was 300 g/ha, the NOEC [8] was 1 mg/L and the LC50 ([9]; acute, duration: 96 hours, mortality) was 2 mg/L (≈ 6.93 µM). It also gave an NOEC ([9]; chronic/long-term, duration: 21 days, growth) of 0.2 mg/L, an LD50 ([10]; acute, oral, M, mortality) of 1600 mg/kg-day and an NOAEL ([10]; chronic, duration: 2 years, histopathology: nonneoplastic) of 2.5 mg/kg-day. For the same molecule, the NOAEL ([10]; developmental, development) was 31 mg/kg-day, the NOEL ([10]; reproduction developmental, reproduction) was 16 mg/kg-day and the LC50 ([11]; acute, mortality) was 250 mg/kg. It also gave an NOEC ([11]; chronic/long-term) of 10.3 mg/kg, an LEL ([12]; mortality) of 36 g/ha and an LEL ([12]; reproduction) of 36 g/ha.
